Data reported in EP0869969B1, “PEPTIDE CONJUGATES, USE THEREOF AS A DRUG, AND COMPOSITIONS CONTAINING them” (INSTITUT EUROPEEN DE BIOLOGIE CELLULAIRE, priority 1995, dated 2003).
Values joined by “and” are separate entries in the source; they are usually repeats but may differ in a detail not shown here. Equal values may be shown once. Starred links: 1 amine or outer side, 2 acyl side, 3 side chain; linkers in the order of their positions; H or OH if unused. Residues, ends and D or L forms follow the SMILES beside them. Adipoyl = O=C(CCCCC(=O)[*:2])[*:1]

Assays:
rat-OFA = experiment: Wound-healing power in the rat: sutured flank incision, topical application, scar resistance to stretching by dynamometer; type: in vivo; details: for augmentation de la cicatrisation des plaies par rapport aux témoins: 5 jours; for Résistance des cicatrices à l'étirement, Moyenne: mean of treated group (control 24,5 +/- 1,5)
Protocol: Déterminer le pouvoir cicatrisant du peptide n° 7 administré chez le rat-OFA par applications topiques aux doses de 0,75 µg, 7,5 µg et 75 µg par animal pendant cinq jours.
I - Animaux : rats de souche OFA, OF1, IFFA-CREDO, pesant de 250 à 300 g.
Conjugué peptidique n° 7, correspondant la formule : Adipoyl-Lys-Lys-Gly-His-Lys-NH2.
Mis en solution dans le propylène glycol aux doses de 1,5 µg/ml, 15 µg/ml, 150 µg/ml.
Après anesthésie générale à l'éther, une incision de 5 cm de long a été pratiquée sur la flanc droit des animaux.
Une suture en fil trinyl 2/0 a été effectuée à raison d'un point tous les 0,5 cm.
Les animaux traités comme les témoins ont subi la même intervention dans les mêmes conditions.
Le traitement a débuté le lendemain de l'intervention sur les lots d'animaux traités aux doses de 0,5 ml de solution peptidique sur chaque incision.
Soit 0,75 µg, 7,5 µg et 75 µg de peptide par animal et par application pendant la durée du traitement, soit 5 jours.
Les animaux ont été mis en observation pendant 9 jours, ils ont ensuite été sacrifiés par une dose létale de penthiobarbital.
Les zones de peau en cours de cicatrisation ont été prélevées et soumises aux "tests" d'étirement au dynamomètre, pour mesurer la résistance de la cicatrice à l'étirement.
Une analyse statistique a été effectuée sur les valeurs de résistance obtenue au dynamomètre. Une analyse de variance et un test de "T" student a été pratiqué sur les valeurs individuelles, afin de définir le seuil de signification des résultats.

[1] = tested on: fibroblastes humains de plastie mammaire; experiment: Type I collagen synthesis by cultured primary fibroblasts, secondary immunofluorescence (rhodamine/TRITC); type: cell-based, humain
Text: (§1) La mise en évidence de l'influence du conjugué n' 7 sur la synthèse de collagène de type I par des cellules en culture a été réalisée sur deux types cellulaires : • des fibroblastes humains de plastie mammaire au 3ème passage, obtenus dans notre laboratoire de culture cellulaire à l'IEB, • des MRC5, fibroblastes de poumon embryonnaire humain non transformés au passage p38, obtenus à p 25-30 chez ICN FLOW.
(§2) Les cellules sont stimulées ou non avec le conjugué n° 7, puis elles sont observées au microscope pholoniquc à fluorescence après révélation du collagène de type I par une réaction d'immuno-fluorescence secondaire.
(§3) Les cellules sont ensemencées à raison de 70 000 cellules par ml pour les fibroblastes de primoculture et 20 000 pour les MRC5.
(§4) La culture est réalisée en DMEM 10% SVF dans les tubes de Leigton contenant une lamelle dans le fond du tube, volume final : 1,6 ml.
8 tubes sont prévus par type cellulaire : 3 témoins et 5 concentrations.
Ces différentes solutions mères seront ajoutées au milieu de culture au moment du contact produit.
Les dilutions sont réalisées dans du PBS (Eurobio) - BSA 0,1% (Flucka) puis filtrées sur filtres 0,22 µm (Sartorius).
A J0, le milieu est éliminé et remplacé par du milieu frais auquel est ajouté le conjugué n° 7 aux différentes concentrations selon le tableau suivant :
Les témoins TO et T ne reçoivent que du milieu.
Le milieu est élimine; les tubes sont rincés 3 fois avec du DMEM sans sérum à 37° C. Les cellules sont fixées 20 mn à 4°C en présence de PFA 2,5% (Prolabo) dans du Hanks (Eurobio).
3 rinçages en DMEM sans sérum sont effectués suivis de 2 lavages 10 mn en PBS sans calcium ni magnésium (Eurobio). […]
(§5) Les observations microscopiques sont réalisées sur un microscope droit à fluorescence Zeiss (Axioplan), surmonté d'une caméra 3 CCD Sony (MC-3215 P/M) reliée à un moniteur vidéo Trinitron avec écran couleur Sony. […]
(§6) Les cellules sont d'abord observées en contraste interférentiel et/ou de phase. Quand un champ est sélectionné, l'image est enregistrée, puis sans bouger d'endroit l'observation est réalisée en fluorescence et enregistrée. […]

[2] = tested on: MRC5, fibroblastes de poumon embryonnaire humain; experiment: Type I collagen synthesis by cultured MRC5 fibroblasts, secondary immunofluorescence; type: cell-based; details: MRC5, results not shown
Text: as §1, §2, §3, §4
8 tubes sont prévus par type cellulaire : 3 témoins et 5 concentrations. […]
as §5, §6

Question: How did the “augmentation de la cicatrisation des plaies par rapport aux témoins” value (rat-OFA; topical, 0,75 µg par jour) turn out when `NCCCC[C@H](NC(=O)[C@H](Cc1c[nH]cn1)NC(=O)CNC(=O)[C@H](CCCCN)NC(=O)[C@H](CCCCN)NC(=O)CCCCC(=O)O)C(N)=O` [conjugué 7, Adipoyl-Lys-Lys-Gly-His-Lys-NH2] (Adipoyl-KKGHK-NH2) was run?
Answer: Its value is 14,5%.

Question: And the “Résistance des cicatrices à l'étirement "dynamométrie"” value (rat-OFA; topical, 0,75 µg/jour/5 jours, individual treated animals, sacrifice after 9 days)?
Answer: Its value is 28,5 Dynes and 26,1 Dynes and 29,3 Dynes and 27,7 Dynes and 28,6 Dynes.

Question: What about the “Résistance des cicatrices à l'étirement "dynamométrie", Moyenne” value (rat-OFA; topical, 0,75 µg/jour/5 jours, mean of treated group (control 24,5+/-1,5)) of the same compound?
Answer: Its value is 28,0+/-1,2 Dynes.

Question: What about the “augmentation de la cicatrisation des plaies par rapport aux témoins” value (rat-OFA; topical, 75 µg par jour) of the same compound?
Answer: The value was 59,6%.

Question: What about the “augmentation de la cicatrisation des plaies par rapport aux témoins” value (rat-OFA; topical, 7,5 µg par jour) of the same compound?
Answer: Its value is 30,9%.

Question: What about the “Résistance des cicatrices à l'étirement, Dynes” value (rat-OFA; topical, 7,5 µg/jour/5 jours (Tableau n° 2), individual treated animals) of the same compound?
Answer: Its value is 32,6 Dynes and 30,4 Dynes and 33,1 Dynes and 32,3 Dynes and 31,8 Dynes.

Question: What about the “Résistance des cicatrices à l'étirement, Moyenne” value (rat-OFA; topical, 7,5 µg/jour/5 jours (Tableau n° 2)) of the same compound?
Answer: Its value is 32,0 +/- 1,0 Dynes.

Question: And the “Résistance des cicatrices à l'étirement, Dynes” value (rat-OFA; topical, Tableau n° 3, 7,5 µg/jour/5 jours, individual treated animals)?
Answer: Its value is 39,8 Dynes and 41,3 Dynes and 37,5 Dynes and 36,2 Dynes and 40,7 Dynes.

Question: What about the “Résistance des cicatrices à l'étirement, Moyenne” value (rat-OFA; topical, Tableau n° 3, 7,5 µg/jour/5 jours) of the same compound?
Answer: The value was 39,1+/-2,2 Dynes.

Question: And the “aspect des cicatrisations au 9ème jour” value (rat-OFA; topical, day 9)?
Answer: The value was “cicatrisation parfaitement plate, avec absence de bourrelets cicatriciels”.

Question: And the action cicatrisante (rat-OFA; topical, overall conclusion)?
Answer: Its action cicatrisante is “action cicatrisante hautement significative”.

Question: What about the “synthèse de collagène de type I” value ([1]; 10-11 M, fibroblastes de primoculture) of the same compound?
Answer: The value was “stimule très significativement”.

Question: What about the “luminosité moyenne du rouge sur l'ensemble de l'image” value ([1]; 10-11 M, untreated cells 32,78) of the same compound?
Answer: The value was 54,8.

Question: And the “stimulation de la synthèse de collagène de type 1” value ([1]; fibroblastes humains de primocultures, versus untreated cells)?
Answer: Its value is “+67%”.

Question: And the “synthèse de collagène de type I” value [2]?
Answer: The value was “mêmes tendances”.
